Measurements reported in BigSolDB 2.1.

Compound `NC(=O)c1ccc(N)cc1` has a solubility (mole fraction) (in acetone, 283.15 K) of 0.00745, a solubility (mole fraction) (in acetone, 288.15 K) of 0.00795 and a solubility (mole fraction) (in acetone, 293.15 K) of 0.0086. It also gave a solubility (mole fraction) (in acetone, 298.15 K) of 0.00956, a solubility (mole fraction) (in acetone, 303.15 K) of 0.0105 and a solubility (mole fraction) (in acetone, 308.15 K) of 0.0118. The solubility (mole fraction) (in acetone, 313.15 K) was 0.0137, the solubility (mole fraction) (in acetone, 318.15 K) was 0.0154 and the solubility (mole fraction) (in acetone, 323.15 K) was 0.0176. For the same compound, the solubility (mole fraction) (in acetonitrile, 283.15 K) was 0.00193, the solubility (mole fraction) (in acetonitrile, 288.15 K) was 0.00204 and the solubility (mole fraction) (in acetonitrile, 293.15 K) was 0.00225. For the same compound, the solubility (mole fraction) (in acetonitrile, 298.15 K) was 0.00251, the solubility (mole fraction) (in acetonitrile, 303.15 K) was 0.00298 and the solubility (mole fraction) (in acetonitrile, 308.15 K) was 0.0036. For the same compound, the solubility (mole fraction) (in acetonitrile, 313.15 K) was 0.00447, the solubility (mole fraction) (in acetonitrile, 318.15 K) was 0.00546 and the solubility (mole fraction) (in acetonitrile, 323.15 K) was 0.00661. It also gave a solubility (mole fraction) (in ethanol, 283.15 K) of 0.00621, a solubility (mole fraction) (in ethanol, 288.15 K) of 0.00649 and a solubility (mole fraction) (in ethanol, 293.15 K) of 0.00697. It also gave a solubility (mole fraction) (in ethanol, 298.15 K) of 0.00777, a solubility (mole fraction) (in ethanol, 303.15 K) of 0.00883 and a solubility (mole fraction) (in ethanol, 308.15 K) of 0.0104. For the same compound, the solubility (mole fraction) (in ethanol, 313.15 K) was 0.0121, the solubility (mole fraction) (in ethanol, 318.15 K) was 0.0141 and the solubility (mole fraction) (in ethanol, 323.15 K) was 0.016. The solubility (mole fraction) (in ethyl acetate, 283.15 K) was 0.000539, the solubility (mole fraction) (in ethyl acetate, 288.15 K) was 0.000606 and the solubility (mole fraction) (in ethyl acetate, 293.15 K) was 0.000697. It also gave a solubility (mole fraction) (in ethyl acetate, 298.15 K) of 0.000845, a solubility (mole fraction) (in ethyl acetate, 303.15 K) of 0.00103 and a solubility (mole fraction) (in ethyl acetate, 308.15 K) of 0.00131. It also gave a solubility (mole fraction) (in ethyl acetate, 313.15 K) of 0.00166, a solubility (mole fraction) (in ethyl acetate, 318.15 K) of 0.00207 and a solubility (mole fraction) (in ethyl acetate, 323.15 K) of 0.00257. It also gave a solubility (mole fraction) (in isobutanol, 283.15 K) of 0.00239, a solubility (mole fraction) (in isobutanol, 288.15 K) of 0.00249 and a solubility (mole fraction) (in isobutanol, 293.15 K) of 0.00263. For the same compound, the solubility (mole fraction) (in isobutanol, 298.15 K) was 0.0028, the solubility (mole fraction) (in isobutanol, 303.15 K) was 0.00309 and the solubility (mole fraction) (in isobutanol, 308.15 K) was 0.00342. For the same compound, the solubility (mole fraction) (in isobutanol, 313.15 K) was 0.00384, the solubility (mole fraction) (in isobutanol, 318.15 K) was 0.00422 and the solubility (mole fraction) (in isobutanol, 323.15 K) was 0.00467. It also gave a solubility (mole fraction) (in isopropanol, 283.15 K) of 0.00331, a solubility (mole fraction) (in isopropanol, 288.15 K) of 0.00354 and a solubility (mole fraction) (in isopropanol, 293.15 K) of 0.00393. The solubility (mole fraction) (in isopropanol, 298.15 K) was 0.00431, the solubility (mole fraction) (in isopropanol, 303.15 K) was 0.00487 and the solubility (mole fraction) (in isopropanol, 308.15 K) was 0.00577. The solubility (mole fraction) (in isopropanol, 313.15 K) was 0.00677, the solubility (mole fraction) (in isopropanol, 318.15 K) was 0.00819 and the solubility (mole fraction) (in isopropanol, 323.15 K) was 0.00965. The solubility (mole fraction) (in methanol, 283.15 K) was 0.0121, the solubility (mole fraction) (in methanol, 288.15 K) was 0.0132 and the solubility (mole fraction) (in methanol, 293.15 K) was 0.0145. For the same compound, the solubility (mole fraction) (in methanol, 298.15 K) was 0.0163, the solubility (mole fraction) (in methanol, 303.15 K) was 0.0188 and the solubility (mole fraction) (in methanol, 308.15 K) was 0.0214. For the same compound, the solubility (mole fraction) (in methanol, 313.15 K) was 0.0246, the solubility (mole fraction) (in methanol, 318.15 K) was 0.0287 and the solubility (mole fraction) (in methanol, 323.15 K) was 0.0328. For the same compound, the solubility (mole fraction) (in methyl acetate, 283.15 K) was 0.00147, the solubility (mole fraction) (in methyl acetate, 288.15 K) was 0.00154 and the solubility (mole fraction) (in methyl acetate, 293.15 K) was 0.0017. For the same compound, the solubility (mole fraction) (in methyl acetate, 298.15 K) was 0.00194, the solubility (mole fraction) (in methyl acetate, 303.15 K) was 0.00217 and the solubility (mole fraction) (in methyl acetate, 308.15 K) was 0.00247. For the same compound, the solubility (mole fraction) (in methyl acetate, 313.15 K) was 0.00274, the solubility (mole fraction) (in methyl acetate, 318.15 K) was 0.00311 and the solubility (mole fraction) (in methyl acetate, 323.15 K) was 0.00347. For the same compound, the solubility (mole fraction) (in n-butanol, 283.15 K) was 0.00257, the solubility (mole fraction) (in n-butanol, 288.15 K) was 0.00274 and the solubility (mole fraction) (in n-butanol, 293.15 K) was 0.00292. It also gave a solubility (mole fraction) (in n-butanol, 298.15 K) of 0.00313, a solubility (mole fraction) (in n-butanol, 303.15 K) of 0.00345 and a solubility (mole fraction) (in n-butanol, 308.15 K) of 0.00375. The solubility (mole fraction) (in n-butanol, 313.15 K) was 0.00421, the solubility (mole fraction) (in n-butanol, 318.15 K) was 0.00468 and the solubility (mole fraction) (in n-butanol, 323.15 K) was 0.00514. For the same compound, the solubility (mole fraction) (in n-butyl acetate, 283.15 K) was 0.000749, the solubility (mole fraction) (in n-butyl acetate, 288.15 K) was 0.000819 and the solubility (mole fraction) (in n-butyl acetate, 293.15 K) was 0.000974. It also gave a solubility (mole fraction) (in n-butyl acetate, 298.15 K) of 0.00121, a solubility (mole fraction) (in n-butyl acetate, 303.15 K) of 0.00152 and a solubility (mole fraction) (in n-butyl acetate, 308.15 K) of 0.00186. The solubility (mole fraction) (in n-butyl acetate, 313.15 K) was 0.00229, the solubility (mole fraction) (in n-butyl acetate, 318.15 K) was 0.00275 and the solubility (mole fraction) (in n-butyl acetate, 323.15 K) was 0.00331. The solubility (mole fraction) (in n-propanol, 283.15 K) was 0.00401, the solubility (mole fraction) (in n-propanol, 288.15 K) was 0.00411 and the solubility (mole fraction) (in n-propanol, 293.15 K) was 0.0044. The solubility (mole fraction) (in n-propanol, 298.15 K) was 0.00496, the solubility (mole fraction) (in n-propanol, 303.15 K) was 0.00585 and the solubility (mole fraction) (in n-propanol, 308.15 K) was 0.00711. The solubility (mole fraction) (in n-propanol, 313.15 K) was 0.00839, the solubility (mole fraction) (in n-propanol, 318.15 K) was 0.01 and the solubility (mole fraction) (in n-propanol, 323.15 K) was 0.0117. For the same compound, the solubility (mole fraction) (in water, 283.15 K) was 0.000858, the solubility (mole fraction) (in water, 288.15 K) was 0.000983 and the solubility (mole fraction) (in water, 293.15 K) was 0.00118. For the same compound, the solubility (mole fraction) (in water, 298.15 K) was 0.00146, the solubility (mole fraction) (in water, 303.15 K) was 0.00184 and the solubility (mole fraction) (in water, 308.15 K) was 0.00229. It also gave a solubility (mole fraction) (in water, 313.15 K) of 0.00281, a solubility (mole fraction) (in water, 318.15 K) of 0.00364 and a solubility (mole fraction) (in water, 323.15 K) of 0.00449.
